Results reported in patent US20150182527A1, “COMPOSITIONS, DEVICES AND METHODS OF TREATING INFECTIONS” (COOK MEDICAL TECHNOLOGIES LLC, priority 2014, published 2015).

Columns and labels:
C. glabrata # ATCC 2950 = assay: Checkerboard microdilution MIC of azole and quaternary ammonium salt combinations; type: cell-based, Candida glabrata; settings: for MIC: Nakaseomyces glabratus, ATCC2950, fluconazole alone or its concentration in the combination
Text: (§1) Interactions between the selected azoles and quaternary ammonium salts (quats) were characterized via changes in minimum inhibitory concentration (MIC) using a checkerboard method in 96-well plates. This method is adapted from the microdilution method outlined in CLSI, M27-A3 (2008), —Reference Method for Broth Dilution Antifungal Susceptibility Testing of Yeasts; Approved Standard—3rd Edition.
(§2) Briefly, X and Y axes were established on the plates to serve as MIC controls for the compounds acting individually. Two-compound interactions were evaluated at the X-Y axis intersection of the two single-drug concentration axes.
(§3) Frozen concentrated stock compound solutions were used as the starting point in making the dilution series. […] One-quarter of the final well volume of the 4× stock was added to the appropriate wells. For wells with a second compound, one-quarter of the final well volume of the second compound was also added. An equivalent volume of culture media was added to wells in which only a single compound was tested.
(§4) Final well volume was either 100 μl or 200 μl depending on assay run. After addition of the 4× stocks and/or media, one-half of the final well volume of 5×10^3 CFU/mL yeast inoculum was added to each test well. Yeast inoculums were made from a 0.5 McFarland-matched culture that had been growing for 4-5 hours at 37° C. in trypticase soy broth (TSB). Each assay plate also included inoculum-only growth control wells (half the final well volume of inoculum plus the other half culture media) and culture media-only control wells. The inoculated plates were cultured aerobically in a humidified 36° C. room air incubator for 18 hours or 24 hours (±1 hour), depending on assay run, at which time growth was scored. The scored plates were then returned to the incubator for an additional 24 hours (±1 hour) of culturing and scored a second time (at 42 or 48 hours total culturing time).
(§5) Unless stated otherwise, yeast growth was scored using the subjective five tier numerical score (NS) scale established in CLSI M27-A3: 4=no reduction in growth relative to control, 3=slight reduction in growth (-25% reduction), 2=prominent decrease in growth (˜50% reduction), 1=slightly hazy growth (-75% reduction), 0 =no visible growth. Growth is scored relative to the on-plate inoculum control.
(§6) The checkerboard plate data was utilized to derive a fractional inhibitory concentration index (FICI) value that scores the interaction between compounds on a three category interaction scale: FICI <0.5 indicates synergy, FICI 0.5-4 indicates no interaction, and FICI >4 indicates antagonism. The FICI equation is: […]

C. albicans #ATCC 10231 = assay: as above; type: cell-based, Candida albicans; settings: for MIC: Candida albicans
Text: as §1, §2, §3, §4, §5, §6

[1] = TSB media, 48 hours post inoculation, benzalkonium-Cl alone or its concentration in the combination

| Molecule | MIC (C. glabrata # ATCC 2950; RPMI media, 48 hours post inoculation) [µg/mL] | MIC (C. glabrata # ATCC 2950; TSB media, 42 hours post inoculation, NS≦2 is efficacious) [µg/mL] | Fluconazole MIC (C. glabrata # ATCC 2950; TSB media, 48 hours post inoculation, fluconazole alone or its concentration in the combination with benzalkonium-Cl) [µg/mL] | MIC (C. albicans #ATCC 10231; ATCC10231, 48 h, RPMI media, 48 hours post inoculation, fluconazole alone or its concentration in the combination) [µg/mL] | MIC (C. albicans #ATCC 10231; ATCC10231, TSB media, 42 hours post inoculation, NS≦2 is efficacious, fluconazole alone or its concentration in the combination) [µg/mL] | MIC (C. albicans #ATCC 10231; ATCC10231, TSB media, 48 hours post inoculation, fluconazole alone or its concentration in the combination with benzalkonium-Cl) [µg/mL] | Benzalkonium-Cl MIC (C. glabrata # ATCC 2950; [1]) [µg/mL] | Benzalkonium-Cl MIC (C. albicans #ATCC 10231; [1]) [µg/mL] |
| --- | --- | --- | --- | --- | --- | --- | --- | --- |
| OC(Cn1cncn1)(Cn1cncn1)c1ccc(F)cc1F [Fluconazole, fluconazole] | 16 | 16 | 16 | 128 | 256 | 64 | – | – |
| benzalkonium chloride [Benzalkonium-Cl] | – | – | – | – | – | – | 1.9 | 3.8 |
